Measurements reported in patent US20140011853A1, “SUBSTITUTED 3-(BIPHENYL-3-YL)-8,8-DIFLUORO-4-HYDROXY-1-AZASPIRO[4.5]DEC-3-EN-2-ONES FOR THERAPY” (BAYER INTELLECTUAL PROPERTY GMBH, priority 2011, published 2014).
“And” between values parts separate entries of the source, which are not always exact repeats. Equal values may be shown once.

Columns and labels:
[1] = system: Myzus persicae; assay: Myzus test (MYZUPE spray treatment); type: in vivo; details: for pest or weed control at 500 g/ha / effect (kill of aphids): after 6 days, 500 g/ha; for pest or weed control at 500 g/ha: read-out: effect (kill of aphids)
Source text: Disks of Chinese cabbage (Brassica pekinensis) infested by all stages of the green peach aphid (Myzus persicae) are sprayed with an active compound formulation of the desired concentration.

[2] = system: Tetranychus urticae; assay: Tetranychus test, OP-resistant (TETRUR spray treatment); type: in vivo; details: for pest or weed control at 100 g/ha / effect (kill of spider mites): after 6 days; for pest or weed control at 100 g/ha: read-out: effect (kill of spider mites)
[3] = system: Spodoptera frugiperda; assay: Spodoptera frugiperda test (SPODFR spray treatment); type: in vivo; details: 500 g/ha, after 7 days
[4] = system: Phaedon cochleariae; assay: Phaedon test (PHAECO spray treatment); details: for effect (kill of beetle larvae): 500 g/ha, after 7 days
[5] = system: KM12; assay: Tumour cell proliferation, CellTiter-Glo, 96-hour incubation, KM12; type: cell-based; details: Homo sapiens, KM12, 96 h; read-out: KM12 IC50
Protocol: (§1) In accordance with the invention, the substances were tested in cell-based assays for the ability of the substances of inhibiting tumour cell proliferation after a 96-hour incubation with the substance. Cell viability was tested using the CellTiter-Glo® luminescent cell viability assay (Promega). The cells were sown at a density of 2000-5000 cells/well (depending on the cell line) in 100 μl growth medium on 96-well microtiter plates. For each cell line examined, cells were sown on a separate plate to determine the luminescence at t=0 hours and t=96 hours. After overnight incubation at 37° C., the luminescence values for the t=0 samples were determined. The dose plates for the t=96 hours points in time were treated with substances diluted with growth medium. The cells were then incubated at 37° C. for 96 hours, and the luminescence values for the t=96 hours samples were then determined. For data analysis, the t=0 values were subtracted from the t=96 hours values for treated and untreated samples. The differences in luminescence in percent between substance-treated samples and control values were used to determine the growth inhibition in percent.
(§2) The substances were tested in the following cell lines which represent the stated indications in an exemplary manner: […]

[6] = system: MCF7; assay: Tumour cell proliferation, CellTiter-Glo, 96-hour incubation, MCF7; type: cell-based; details: Homo sapiens, MCF7, 96 h; read-out: MCF7 IC50
Protocol: as §1, §2

[7] = system: H460; assay: Tumour cell proliferation, CellTiter-Glo, 96-hour incubation, H460; type: cell-based; details: Homo sapiens, NCI-H460, 96 h; read-out: H460 IC50
Protocol: as §1, §2

[8] = target: human ACC2 (Homo sapiens, UniProt O00763); assay: Human ACC2 enzyme assay (ADP-Glo); details: ACC 2 IC50, individual measurements
[9] = system: PC3; assay: Tumour cell proliferation, CellTiter-Glo, 96-hour incubation, PC3; type: cell-based; details: Homo sapiens, PC-3, 96 h; read-out: PC3 IC50
Protocol: as §1, §2

[10] = target: T1, human ACC1 (Homo sapiens, UniProt Q13085); assay: Human ACC1 enzyme assay (ADP-Glo); type: biochemical; details: individual measurements; read-out: ACC 1 IC50
T1 construct: FLAG (C); made in house; host or cells: baculovirus-infected insect cells (Hi5)

[11] = system: human ACC1; assay: Human ACC1 enzyme assay (ADP-Glo); type: biochemical
[12] = Tetranychus urticae, 144 h, 100 g/ha

human ACC2, sequence (O00763 27-2458 limits assumed): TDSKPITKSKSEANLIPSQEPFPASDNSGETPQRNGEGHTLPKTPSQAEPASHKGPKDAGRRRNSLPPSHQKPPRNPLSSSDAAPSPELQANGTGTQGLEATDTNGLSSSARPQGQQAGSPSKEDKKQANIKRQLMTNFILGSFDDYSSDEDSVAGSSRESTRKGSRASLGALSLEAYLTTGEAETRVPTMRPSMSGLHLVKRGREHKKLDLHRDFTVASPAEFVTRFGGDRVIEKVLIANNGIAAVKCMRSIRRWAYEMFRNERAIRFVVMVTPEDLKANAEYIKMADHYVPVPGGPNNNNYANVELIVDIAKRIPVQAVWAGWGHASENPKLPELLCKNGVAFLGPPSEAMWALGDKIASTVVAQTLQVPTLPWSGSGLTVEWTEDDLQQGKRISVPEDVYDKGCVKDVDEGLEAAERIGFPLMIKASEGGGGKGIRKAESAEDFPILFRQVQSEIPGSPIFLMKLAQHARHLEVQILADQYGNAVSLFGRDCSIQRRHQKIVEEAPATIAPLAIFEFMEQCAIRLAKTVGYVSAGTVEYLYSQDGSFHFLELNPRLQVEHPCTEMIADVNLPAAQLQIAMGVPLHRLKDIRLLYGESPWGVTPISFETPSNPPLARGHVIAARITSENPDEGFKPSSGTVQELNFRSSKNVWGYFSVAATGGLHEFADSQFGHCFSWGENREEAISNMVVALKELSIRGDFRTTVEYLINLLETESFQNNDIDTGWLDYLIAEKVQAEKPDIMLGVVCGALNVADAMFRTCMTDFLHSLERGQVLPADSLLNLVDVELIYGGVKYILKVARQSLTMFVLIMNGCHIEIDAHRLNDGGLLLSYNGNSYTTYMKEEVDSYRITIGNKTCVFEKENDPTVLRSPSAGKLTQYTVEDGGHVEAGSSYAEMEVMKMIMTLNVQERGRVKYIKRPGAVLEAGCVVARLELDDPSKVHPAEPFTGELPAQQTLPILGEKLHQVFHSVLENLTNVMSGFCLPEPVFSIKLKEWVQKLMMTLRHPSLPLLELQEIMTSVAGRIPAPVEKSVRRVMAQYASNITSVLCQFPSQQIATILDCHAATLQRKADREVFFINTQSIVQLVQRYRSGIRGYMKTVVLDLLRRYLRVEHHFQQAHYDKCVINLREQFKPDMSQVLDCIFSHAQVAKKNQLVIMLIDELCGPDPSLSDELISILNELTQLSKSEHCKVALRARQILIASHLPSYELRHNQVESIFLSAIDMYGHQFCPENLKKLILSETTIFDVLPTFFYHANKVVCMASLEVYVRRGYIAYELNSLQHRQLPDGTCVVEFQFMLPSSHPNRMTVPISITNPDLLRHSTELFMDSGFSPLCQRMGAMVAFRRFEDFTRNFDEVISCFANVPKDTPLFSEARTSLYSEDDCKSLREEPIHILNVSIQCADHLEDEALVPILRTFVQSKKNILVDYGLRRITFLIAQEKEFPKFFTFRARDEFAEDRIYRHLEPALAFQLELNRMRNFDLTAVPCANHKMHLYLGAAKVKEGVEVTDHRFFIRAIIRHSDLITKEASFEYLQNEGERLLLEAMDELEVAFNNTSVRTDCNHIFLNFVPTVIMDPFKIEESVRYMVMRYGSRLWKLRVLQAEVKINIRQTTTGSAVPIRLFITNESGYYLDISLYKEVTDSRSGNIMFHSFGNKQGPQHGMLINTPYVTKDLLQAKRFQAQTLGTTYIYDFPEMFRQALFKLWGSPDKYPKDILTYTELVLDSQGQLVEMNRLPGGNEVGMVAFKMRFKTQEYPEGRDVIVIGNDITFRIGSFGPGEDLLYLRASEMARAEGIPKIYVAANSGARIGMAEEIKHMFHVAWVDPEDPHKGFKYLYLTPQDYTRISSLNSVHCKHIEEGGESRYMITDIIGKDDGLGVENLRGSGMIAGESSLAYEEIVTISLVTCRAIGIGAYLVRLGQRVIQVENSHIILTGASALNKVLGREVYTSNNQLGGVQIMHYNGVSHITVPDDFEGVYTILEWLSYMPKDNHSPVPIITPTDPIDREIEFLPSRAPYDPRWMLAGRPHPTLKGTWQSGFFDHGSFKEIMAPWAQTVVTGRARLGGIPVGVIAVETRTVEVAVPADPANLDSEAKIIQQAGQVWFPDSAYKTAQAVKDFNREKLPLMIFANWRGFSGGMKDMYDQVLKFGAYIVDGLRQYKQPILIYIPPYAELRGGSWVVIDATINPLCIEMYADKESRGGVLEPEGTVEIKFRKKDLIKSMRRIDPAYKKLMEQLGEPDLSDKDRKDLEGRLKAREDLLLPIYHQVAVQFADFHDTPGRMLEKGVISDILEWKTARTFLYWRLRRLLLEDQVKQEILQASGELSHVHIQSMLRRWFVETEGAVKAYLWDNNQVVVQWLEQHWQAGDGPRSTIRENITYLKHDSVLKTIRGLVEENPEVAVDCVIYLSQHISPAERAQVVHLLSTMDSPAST

Compound | pest or weed control at 500 g/ha ([1]; Myzus persicae, 144 h) | pest or weed control at 100 g/ha [2, 12] | effect (kill of caterpillars) [3] | effect (kill of beetle larvae) [4] | effect (kill of aphids) [1] | also measured
CCc1cc(C)cc(C)c1C1=C(OC(=O)C(C)C)C2(CCC(F)(F)CC2)NC1=O [Example I-1-b-1] | 100% | 100% | – | – | – | –
Cc1cc(C)c(C2=C(O)C3(CCC(F)(F)CC3)NC2=O)c(C)c1 [Example I-1-a-1] | 100% | 100% | 83% | – | – | –
CCOC(=O)OC1=C(c2c(C)cc(C)cc2CC)C(=O)NC12CCC(F)(F)CC2 [Example I-1-c-1] | 90% | 100% | – | – | – | –
Cc1cc(C)c(C2=C(OC(=O)C(C)C)C3(CCC(F)(F)CC3)OC2=O)cc1C [Example I-2-b-1] | 100% | – | 83% | – | – | –
Cc1ccc(-c2ccc(Cl)cc2)cc1C1=C(O)C2(CCC(F)(F)CC2)OC1=O [Example I-2-a-3] | – | – | 100% | 100% | 90% | –
Cc1ccc(-c2ccc(F)c(F)c2)cc1C1=C(O)C2(CCCCC2)NC1=O [prior art WO 2008/067911 Table 1, reference compound] | – | – | – | – | – | inhibition at 20 g/ha ([4]; Phaedon cochleariae, 168 h, read-out: % activity PHAECO): 0%; inhibition at 20 g/ha ([1]; Myzus persicae, 144 h, read-out: % activity MYZUPE): 0%; inhibition at 20 g/ha ([2]; Tetranychus urticae, 144 h, read-out: % activity TETRUR): 0%
CCc1cc(C)cc(C)c1C1=C(O)C2(CCC(F)(F)CC2)NC1=O [Example I-1-a-11] | – | – | – | – | – | effect (kill of spider mites) ([2]; 100 g/ha): 100%
Cc1cc(Cl)cc(C)c1C1=C(O)C2(CC=C(F)CC2)NC1=O (centres unmarked) [Example I-1-a-13] | – | – | – | 100% | 100% | effect (kill of spider mites) ([2]; 100 g/ha): 90%
Cc1ccc(-c2ccc(F)cc2)c(C)c1C1=C(O)C2(CC=C(F)CC2)NC1=O (centres unmarked) [Example I-1-a-12] | – | – | 100% | 100% | 100% | effect (kill of spider mites) ([2]; 500 g/ha): 100%
Cc1ccc(-c2ccc(F)cc2)cc1C1=C(O)C2(CCC(F)(F)CC2)NC1=O [Example 1-3, 8,8-Difluoro-3-(4′-fluoro-4-methylbiphenyl-3-yl)-4-hydroxy-1-azaspiro[4.5]dec-3-en-2-one] | 90% | 100% | 100% | 100% | – | IC50 [5]: 0.578 µM; IC50 [6]: 0.209 µM; IC50 [7]: 0.678 µM; IC50 [8]: > 20 µM; IC50 [9]: 0.476 µM; IC50 [10]: 0.166 µM and 0.241 µM; Selectivity ACC1 vs. ACC2 (mean of the individual measurements ± standard deviation) [11]: >101.8 ± 19.0; Ratio of IC50s ACC2/ACC1 (respective measurement) ([11]; pairwise, same dilution series): >120.8 and >82.8
Cc1cc(Cl)cc(C)c1C1=C(O)C2(CCC(F)(F)CC2)NC1=O [Example I-1-a-7] | – | – | – | 100% | 100% | effect (kill of spider mites) ([2]; 100 g/ha): 100%
